# From paper PMC9325490, “Overcoming Multidrug Resistance (MDR): Design, Biological Evaluation and Molecular Modelling Studies of 2,4‐Substituted Quinazoline Derivatives” (Chemmedchem, 2022)
# “Also recorded” adds a separate entry of the source.
# Experiments:
# [1] = tested on: HT29 cells; experiment: Co-administration assay with doxorubicin (MTT) in HT29 cells; type: cell-based
# Experimental: (§1) The co‐administration assay with Doxorubicin was performed in MDCK‐MDR1, HT29 and HT29/DX cells at 48 h as reported with minor modifications.[49] […] On day 2, the tested drug was added alone to the cells at different concentrations (10 nM, 100 nM, 500 nM, 1 μM, 10 μM). On day 3, the medium was removed and the drug at the same concentrations was added alone and in co‐administration with 10 μM Doxorubicin to the cells. After the established incubation time with the tested drug, MTT (0.5 mg/mL) was added to each well, and after 3–4 h incubation at 37 °C, the supernatant was removed. The formazan crystals were solubilized using 100 μL of DMSO/EtOH (1 : 1), and the absorbance values at 570 and 630 nm were determined on the microplate reader Victor 3 from PerkinElmer Life Sciences.
# [2] = tested on: HT29/DX cells; experiment: Co-administration assay with doxorubicin (MTT) in HT29/DX cells; type: cell-based
# Experimental: as §1
# [3] = tested on: HT29 cells; experiment: Intracellular doxorubicin accumulation in HT29 cells; settings: 24 h, doxorubicin 10 μM + compound 100 nM-10 μM
# Experimental: (§2) Cells were collected and the intracellular drug content was measured fluorimetrically as detailed previously,[47] using a Synregy HTX 96‐well plate reader (Bio‐Tek Instruments, Winooski, VT). The results were expressed as nmol doxorubicin/mg cell proteins, according to a titration curve previously set. […] A second series of dishes, after the incubation with doxorubicin formulations under the same experimental conditions, were left for further 10 min at 37 °C, then washed and tested for the intracellular drug content. The difference of doxorubicin concentration between the two series, expressed as nmol doxorubicin extruded/min/mg cell protein was plotted versus the initial drugs’ concentration. Values were fitted to Michaelis‐Menten equation to calculate Vmax and Km, using the Enzfitter software (Biosoft Corporation, Cambridge, United Kingdom).[47]
# [4] = tested on: HT29/DX cells; experiment: Intracellular doxorubicin accumulation in HT29/DX cells
# Experimental: as §2
# [5] = target: T1, P-gp (Homo sapiens, UniProt P08183); experiment: Calcein-AM transport inhibition in MDCK-MDR1 cells; settings: for EC50 P-gp: MDCK-MDR1 cells overexpressing P-gp, calcein-AM, mean ±SEM of two experiments in triplicate
# Experimental: (§3) The new compounds were tested for their activity toward P‐gp and the other two MDR sister proteins, MRP1 and BCRP, by measuring the inhibition of the transport of the profluorescent probe calcein‐AM (P‐gp and MRP1 substrate) in cells overexpressing P‐gp and MRP1 (MDCK‐MDR1 and MDCK‐MRP1 cells, respectively) and of the fluorescent probe Hoechst 33342 (BCRP substrate) in cells overexpressing BCRP (MDCK‐BCRP cells).
# Each cell line (30,000 cells per well) was seeded into black CulturePlate 96/wells plate with 100 μL medium and allowed to become confluent overnight. 100 μL of test compounds, solubilized in culture medium, were added to monolayers, with final concentrations ranging from 0.1 to 100 μM. Thus, after a 30 min incubation time at 37 °C, calcein‐AM was added in 100 μL of Phosphate Buffered Saline (PBS) to the 96/wells plate to yield a final concentration of 2.5 μM; the plate was then incubated for 30 min. Each well was washed 3 times with ice cold PBS and saline buffer was added to each well and the plate read with Victor3 (PerkinElmer) at excitation and emission wavelengths of 485 nm and 535 nm, respectively. In these experimental conditions, calcein cell accumulation in the absence and in the presence of tested compounds was evaluated and fluorescence basal level was estimated with untreated cells. In treated wells, the increase of fluorescence with respect to basal level was measured. EC50 values were determined by fitting the fluorescence increase percentage versus log[dose].
# [6] = tested on: P-gp; experiment: Apparent permeability (Papp, BA/AB) in Caco-2 cell monolayer; settings: human, Caco-2, P app (BA/AB), two experiments in duplicate
# Experimental: (§4) Compounds displaying a BA/AB >2 but not inducing an ATP cell depletion are classified as class IIB3 substrates.[43]
# (§5) Caco‐2 cells were seeded onto a Millicell assay system (Millipore), in which a cell monolayer was set in between a filter cell and a receiver plate at a density of 20000 cells/well. The culture medium was replaced every 48 h, and the cells were kept for 21 days in culture. The trans epithelial electrical resistance (TEER) of the monolayers was measured daily, before and after the experiment, by using an epithelial voltohmmeter (Millicell‐ERS). Generally, TEER values greater than 1000 Ω for a 21 day culture are considered optimal.
# (§6) After 21 days of Caco‐2 cell growth, the medium was removed from the filter wells and from the receiver plate, and they were filled with fresh Hank's balanced salt solution (HBSS) buffer (Invitrogen). This procedure was repeated twice, and the plates were incubated at 37 °C for 30 min. After the incubation time, the HBSS buffer was removed, and drug solutions and reference compounds were added to the filter well at a concentration of 100 μM, whereas fresh HBSS was added to the receiver plate. The plates were incubated at 37 °C for 120 min. Afterward, samples were removed from the apical (filter well) and basolateral (receiver plate) side of the monolayer to measure the permeability. The apparent permeability (Papp ), in units of nms‐1, was calculated by using the same equation reported above.
# [7] = target: T1, P-gp; experiment: ATP cell depletion (ATPlite assay) in MDCK-MDR1 cells; settings: Yes/No
# Experimental: In addition, the P‐gp interacting profile of the new compounds was evaluated by the combination of the inhibition of the efflux of calcein‐AM in MDCK‐MDR1 cells test with other two assays: the apparent permeability (Papp ) determination in the Caco‐2 cell monolayer, and the ATP cell depletion in MDCK‐MDR1 cells. […] This last information is completed by the ATP cell depletion assay, which measures the total ATP cell level in the MDCK cells overexpressing only P‐gp: in this setting, the observed effect can be mainly ascribed to the overexpressed transporter.[42]
# The MDCK‐MDR1 cells seeded into 96‐well microplate in 100 μL of complete medium at a density 2×10^4 cells/well were incubated overnight (O/N) in a humidified atmosphere 5 % CO2 at 37 °C. The medium was removed and 100 μL of complete medium either alone or containing different concentrations of test compounds were added. The plate was incubated for 2 h in a humidified 5 % CO2 atmosphere at 37 °C. 50 μL of mammalian cell lysis solution was added to all wells and the plate shaken for five minutes in an orbital shaker. 50 μL of substrate solution was added to all wells and the plate shaken for five minutes in an orbital shaker. The plate was dark adapted for ten minutes and the luminescence was measured.
# [8] = target: MRP1 (Homo sapiens, UniProt P33527); experiment: cell-based
# Experimental: as §3
# Each cell line (30,000 cells per well) was seeded into black CulturePlate 96/wells plate with 100 μL medium and allowed to become confluent overnight. 100 μL of test compounds, solubilized in culture medium, were added to monolayers, with final concentrations ranging from 0.1 to 100 μM. […] Each well was washed 3 times with ice cold PBS and saline buffer was added to each well and the plate read with Victor3 (PerkinElmer) at excitation and emission wavelengths of 485 nm and 535 nm, respectively. In these experimental conditions, calcein cell accumulation in the absence and in the presence of tested compounds was evaluated and fluorescence basal level was estimated with untreated cells. In treated wells, the increase of fluorescence with respect to basal level was measured. EC50 values were determined by fitting the fluorescence increase percentage versus log[dose].
# [9] = tested on: Caco-2 cell monolayer; experiment: Apparent permeability (Papp, BA/AB) in Caco-2 cell monolayer; settings: BA/AB ratio, two experiments in duplicate
# Experimental: as §4, §5, §6
# [10] = target: T1, P-gp; experiment: P-gp interacting profile (combination of calcein-AM, Papp and ATP cell depletion assays); settings: classification from Papp, calcein-AM inhibition and ATP cell depletion
# Experimental: In addition, the P‐gp interacting profile of the new compounds was evaluated by the combination of the inhibition of the efflux of calcein‐AM in MDCK‐MDR1 cells test with other two assays: the apparent permeability (Papp ) determination in the Caco‐2 cell monolayer, and the ATP cell depletion in MDCK‐MDR1 cells. […] This last information is completed by the ATP cell depletion assay, which measures the total ATP cell level in the MDCK cells overexpressing only P‐gp: in this setting, the observed effect can be mainly ascribed to the overexpressed transporter.[42] […] Compounds displaying a BA/AB >2 but not inducing an ATP cell depletion are classified as class IIB3 substrates.[43]
# [11] = target: T2, BCRP (Homo sapiens, UniProt Q9UNQ0); experiment: Hoechst 33342 transport inhibition in MDCK-BCRP cells; type: cell-based; settings: MDCK-BCRP cells overexpressing BCRP, mean ±SEM
# T2 construct: expressed in transfected cells; host or cells: MDCK-BCRP (Madin-Darby Canine Kidney, transfected); gift of Prof; P. Borst, NKI-AVL
# T2 sequence (Q9UNQ0 1-655): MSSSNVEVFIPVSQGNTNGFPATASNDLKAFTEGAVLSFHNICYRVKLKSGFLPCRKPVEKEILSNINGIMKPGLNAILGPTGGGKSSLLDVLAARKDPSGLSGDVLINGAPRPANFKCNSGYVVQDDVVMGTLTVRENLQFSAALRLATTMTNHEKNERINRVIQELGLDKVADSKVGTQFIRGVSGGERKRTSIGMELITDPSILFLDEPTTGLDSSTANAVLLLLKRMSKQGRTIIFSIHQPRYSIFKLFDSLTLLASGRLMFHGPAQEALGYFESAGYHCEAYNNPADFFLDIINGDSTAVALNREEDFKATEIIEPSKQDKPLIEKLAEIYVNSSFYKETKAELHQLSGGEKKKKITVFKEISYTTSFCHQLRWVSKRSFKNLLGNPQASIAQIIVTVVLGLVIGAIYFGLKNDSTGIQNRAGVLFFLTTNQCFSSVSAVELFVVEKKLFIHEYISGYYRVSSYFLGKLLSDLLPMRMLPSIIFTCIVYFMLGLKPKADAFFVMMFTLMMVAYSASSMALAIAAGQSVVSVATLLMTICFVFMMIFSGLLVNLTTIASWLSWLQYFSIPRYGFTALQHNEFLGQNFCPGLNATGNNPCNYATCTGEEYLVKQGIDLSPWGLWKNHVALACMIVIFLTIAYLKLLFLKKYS
# Experimental: Each cell line (30,000 cells per well) was seeded into black CulturePlate 96/wells plate with 100 μL medium and allowed to become confluent overnight. 100 μL of test compounds, solubilized in culture medium, were added to monolayers, with final concentrations ranging from 0.1 to 100 μM. After 30 min incubation time at 37 °C, Hoechst 33342 was added in 100 μL of Phosphate Buffered Saline (PBS) to yield a final concentration of 8 μM to the 96/wells plate and the plate incubated for 30 min. The supernatants were drained and the cells were fixed for 20 min under light protection using 100 μL per well of a 4 % PFA solution. Each well was washed 3 times with ice cold PBS and saline buffer added to each well and the plate read with Victor3 (PerkinElmer) at excitation and emission wavelengths of 340/35 nm and 485/20 nm, respectively. In these experimental conditions, Hoechst 33342 accumulation in the absence and in the presence of tested compounds was evaluated and fluorescence basal level was estimated with untreated cells. In treated wells the increase of fluorescence with respect to basal level was measured. EC50 values were determined by fitting the fluorescence increase percentage versus log[dose].
# [12] = tested on: HT29 cells; experiment: Kinetic parameters of doxorubicin efflux in HT29 cells
# Experimental: as §2
# [13] = tested on: HT29/DX cells; experiment: Kinetic parameters of doxorubicin efflux in HT29/DX cells
# Experimental: as §2
# [14] = absence or presence of 10 μM compound 1 e
# [15] = read-out: Km of doxorubicin efflux, absence or presence of 10 μM compound 1 e
# T1 sequence (P08183 whole entry): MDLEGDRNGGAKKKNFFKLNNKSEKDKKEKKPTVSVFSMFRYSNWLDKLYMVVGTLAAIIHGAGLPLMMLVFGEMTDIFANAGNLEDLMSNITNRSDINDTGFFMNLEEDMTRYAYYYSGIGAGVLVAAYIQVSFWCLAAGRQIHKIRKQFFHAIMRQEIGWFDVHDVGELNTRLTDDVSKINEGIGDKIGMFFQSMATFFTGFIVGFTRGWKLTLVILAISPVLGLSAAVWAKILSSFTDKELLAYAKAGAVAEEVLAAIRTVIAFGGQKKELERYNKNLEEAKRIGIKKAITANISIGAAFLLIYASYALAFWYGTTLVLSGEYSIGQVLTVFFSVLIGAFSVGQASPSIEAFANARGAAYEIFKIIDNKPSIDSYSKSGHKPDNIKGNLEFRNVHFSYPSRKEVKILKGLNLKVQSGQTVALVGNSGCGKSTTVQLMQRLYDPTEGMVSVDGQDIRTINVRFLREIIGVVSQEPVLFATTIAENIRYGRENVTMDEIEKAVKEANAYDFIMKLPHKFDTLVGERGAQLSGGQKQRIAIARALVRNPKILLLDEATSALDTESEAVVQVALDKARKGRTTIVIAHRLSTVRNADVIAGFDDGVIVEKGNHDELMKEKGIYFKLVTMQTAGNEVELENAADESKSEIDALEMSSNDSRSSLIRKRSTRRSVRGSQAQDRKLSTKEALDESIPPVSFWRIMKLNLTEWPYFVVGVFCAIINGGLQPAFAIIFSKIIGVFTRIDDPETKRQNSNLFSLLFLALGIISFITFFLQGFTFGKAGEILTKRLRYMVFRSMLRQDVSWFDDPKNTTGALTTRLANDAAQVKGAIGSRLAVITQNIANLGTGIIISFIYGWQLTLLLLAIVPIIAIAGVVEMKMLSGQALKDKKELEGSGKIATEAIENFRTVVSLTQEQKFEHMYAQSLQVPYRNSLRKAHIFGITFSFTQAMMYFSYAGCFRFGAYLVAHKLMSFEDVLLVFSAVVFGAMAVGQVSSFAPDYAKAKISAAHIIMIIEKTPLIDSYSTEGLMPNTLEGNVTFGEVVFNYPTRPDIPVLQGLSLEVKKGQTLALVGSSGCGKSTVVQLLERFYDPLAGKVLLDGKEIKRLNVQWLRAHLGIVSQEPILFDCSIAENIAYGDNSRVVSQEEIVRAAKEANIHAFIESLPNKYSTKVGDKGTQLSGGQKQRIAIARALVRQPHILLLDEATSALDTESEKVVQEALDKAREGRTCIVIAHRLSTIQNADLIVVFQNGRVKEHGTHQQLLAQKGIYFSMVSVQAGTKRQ
# Sequence of MRP1 (P33527 whole entry): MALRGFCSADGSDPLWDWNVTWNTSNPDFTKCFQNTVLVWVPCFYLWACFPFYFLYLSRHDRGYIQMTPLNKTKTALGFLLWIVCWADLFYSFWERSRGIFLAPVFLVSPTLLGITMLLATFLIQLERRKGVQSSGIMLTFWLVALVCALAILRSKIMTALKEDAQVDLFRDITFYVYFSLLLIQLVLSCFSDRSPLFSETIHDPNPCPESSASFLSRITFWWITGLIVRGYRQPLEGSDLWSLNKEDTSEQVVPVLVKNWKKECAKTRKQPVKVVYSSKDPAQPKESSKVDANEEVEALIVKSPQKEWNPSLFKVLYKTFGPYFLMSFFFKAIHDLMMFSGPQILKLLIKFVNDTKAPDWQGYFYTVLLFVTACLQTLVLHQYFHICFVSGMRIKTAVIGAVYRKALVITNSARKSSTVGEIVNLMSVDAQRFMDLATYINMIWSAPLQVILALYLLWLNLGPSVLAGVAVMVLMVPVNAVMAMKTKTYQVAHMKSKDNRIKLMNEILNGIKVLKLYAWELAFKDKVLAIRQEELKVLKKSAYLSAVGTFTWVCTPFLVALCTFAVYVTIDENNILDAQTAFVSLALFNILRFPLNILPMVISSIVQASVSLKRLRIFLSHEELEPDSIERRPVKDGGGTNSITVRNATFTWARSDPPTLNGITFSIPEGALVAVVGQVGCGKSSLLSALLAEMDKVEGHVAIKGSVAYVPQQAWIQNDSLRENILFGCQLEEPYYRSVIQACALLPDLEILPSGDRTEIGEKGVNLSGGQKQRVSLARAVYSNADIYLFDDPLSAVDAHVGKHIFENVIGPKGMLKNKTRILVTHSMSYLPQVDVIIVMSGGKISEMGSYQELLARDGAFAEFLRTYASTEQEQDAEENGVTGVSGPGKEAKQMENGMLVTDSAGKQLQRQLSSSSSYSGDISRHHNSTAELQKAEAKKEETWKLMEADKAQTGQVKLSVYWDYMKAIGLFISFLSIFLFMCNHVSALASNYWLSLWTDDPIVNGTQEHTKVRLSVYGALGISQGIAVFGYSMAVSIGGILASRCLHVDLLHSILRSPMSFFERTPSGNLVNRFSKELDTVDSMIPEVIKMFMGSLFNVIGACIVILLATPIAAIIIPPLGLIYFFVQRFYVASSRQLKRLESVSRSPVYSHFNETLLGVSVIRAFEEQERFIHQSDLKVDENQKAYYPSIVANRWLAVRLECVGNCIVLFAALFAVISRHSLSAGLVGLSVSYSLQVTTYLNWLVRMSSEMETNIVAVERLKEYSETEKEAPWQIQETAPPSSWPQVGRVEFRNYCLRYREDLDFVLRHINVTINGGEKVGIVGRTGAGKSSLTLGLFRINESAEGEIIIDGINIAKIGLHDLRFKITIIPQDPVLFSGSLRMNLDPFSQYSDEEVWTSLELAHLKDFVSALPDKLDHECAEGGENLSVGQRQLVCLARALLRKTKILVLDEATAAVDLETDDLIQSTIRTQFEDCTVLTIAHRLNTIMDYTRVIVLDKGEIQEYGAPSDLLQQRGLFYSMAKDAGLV
SMILES,"efflux ratio at 120 min, 100 μM [6]",EC50 [5],ATP cell depletion [7],also measured
"COc1cc2c(cc1OC)CN(c1nc(/C=C/c3cc(OC)c(OC)c(OC)c3)nc3ccccc13)CC2 [Compound 1 e, (E)‐4‐(6,7‐Dimethoxy‐3,4‐dihydroisoquinolin‐2(1H)‐yl)‐2‐(3,4,5‐trimethoxystyryl)quinazoline]",,,,"cell viability, compound alone ([1]; HT29 (doxorubicin-sensitive) cells): did not significantly reduce cell viability; cell viability, compound alone ([2]; HT29/DX (doxorubicin-resistant) cells): did not significantly reduce cell viability; viability with doxorubicin co-administration ([2]; HT29/DX cells, doxorubicin 10 μM + compound 10 μM): reduced at the same extent of doxorubicin‐sensitive cells; effect on intracellular doxorubicin content [3]: did not modify the intracellular drug content; effect on intracellular doxorubicin content ([4]; HT29/DX cells, 24 h, doxorubicin 10 μM + compound 100 nM-10 μM): progressively increased it"
"c1ccc(CCNc2nc(-c3c4ccccc4cc4ccccc34)nc3ccccc23)cc1 [Compound 3 b, 2‐(Anthracen‐9‐yl)‐N‐phenethylquinazolin‐4‐amine]",10.5,,,melting point: 236 to 238 °C (dec.); EC50 P-gp [5]: not active
"c1ccc2c(-c3nc(N4CCOCC4)c4ccccc4n3)c3ccccc3cc2c1 [Compound 3 c, 4‐(2‐(Anthracen‐9‐yl)quinazolin‐4‐yl)morpholine]",20,,,EC50 P-gp [5]: not active
"COc1ccc(-c2nc(N3CCOCC3)c3ccccc3n2)c(OC)c1OC [Compound 4 c, 4‐(2‐(2,3,4‐Trimethoxyphenyl)quinazolin‐4‐yl)morpholine]",3.8,9550 ± 1800 nM,No,
COc1ccc(C(c2ccc(OC)cc2)c2nc(N3CCOCC3)c3ccccc3n2)cc1 [Compound 7 c],< 2,2130 ± 400 nM,do not inducing ATP cell depletion and No,P app (BA/AB) [9]: 1.5; P-gp interacting profile [10]: P‐gp inhibitor; also recorded: pure inhibitor
"COc1ccc(C(c2ccc(OC)cc2)c2nc(N3CCN(C)CC3)c3ccccc3n2)cc1 [Compound 7 d, 2‐(Bis(4‐methoxyphenyl)methyl)‐4‐(4‐methylpiperazin‐1‐yl)quinazoline]",6.9,960 ± 180 nM,No,EC50 [11]: 8.62 ± 1.6 µM; EC50 [8]: 43.2 ± 8.5 µM
"COc1cccc2c1C(=O)c1c(O)c3c(c(O)c1C2=O)C[C@@](O)(C(=O)CO)C[C@@H]3O[C@H]1C[C@H](N)[C@H](O)[C@H](C)O1 [Doxo, doxorubicin]",,,,"viable cells, doxorubicin alone ([1]; HT29 cells, doxorubicin 10 μM): significant decrease in viable cells; Vmax of doxorubicin efflux [12, 14]: 3.15 ± 0.07 µmol/min; Km [12, 15]: 530 ± 60 nM; intracellular doxorubicin retained, doxorubicin alone ([4]; HT29/DX cells compared with HT29 cells): retained a lower amount of doxorubicin; Vmax of doxorubicin efflux [13, 14]: 8.05 ± 0.64 µmol/min; Km [13, 15]: 520 ± 60 nM"

# Second part, led by results:
"efflux ratio at 120 min, 100 μM [6]",EC50 [5],ATP cell depletion [7],SMILES,also measured
18.5,1140 ± 200 nM,No,"COc1cc2c(cc1OC)CN(c1nc(-c3c4ccccc4cc4ccccc34)nc3ccccc13)CC2 [Compound 3 e, 2‐(Anthracen‐9‐yl)‐4‐(6,7‐dimethoxy‐3,4‐dihydroisoquinolin‐2(1H)‐yl)quinazoline]",
14.8,1410 ± 250 nM,No,"COc1ccc(-c2nc(NCCc3ccccc3)c3ccccc3n2)c(OC)c1OC [Compound 4 b, N‐Phenethyl‐2‐(2,3,4‐trimethoxyphenyl)quinazolin‐4‐amine]",EC50 [8]: 52 ± 10.1 µM
5.4,6060 ± 1200 nM,No,"COc1ccc2ccccc2c1-c1nc(N2CCN(C)CC2)c2ccccc2n1 [Compound 5 d, 2‐(2‐Methoxynaphthalen‐1‐yl)‐4‐(4‐methylpiperazin‐1‐yl)quinazoline]",
19.2,200 ± 40 nM,No,"COc1cc2c(cc1OC)CN(CCc1ccc(Nc3nc(-c4c(OC)c(OC)cc5ccccc45)nc4ccccc34)cc1)CC2 [Compound 6 a, N‐(4‐(2‐(6,7‐Dimethoxy‐3,4‐dihydroisoquinolin‐2(1H)‐yl)ethyl)phenyl)‐2‐(2,3‐dimethoxynaphthalen‐1‐yl)quinazolin‐4‐amine]",
32.9,110 ± 20 nM,No,"COc1ccc(C(c2ccc(OC)cc2)c2nc(Nc3ccc(CCN4CCc5cc(OC)c(OC)cc5C4)cc3)c3ccccc3n2)cc1 [Compound 7 a, 2‐(Bis(4‐methoxyphenyl)methyl)‐N‐(4‐(2‐(6,7‐dimethoxy‐3,4‐dihydroisoquinolin‐2(1H)‐yl)ethyl)phenyl)quinazolin‐4‐amine]",
8.4,160 ± 26 nM,No,"COc1ccc(C(c2ccc(OC)cc2)c2nc(N3CCc4cc(OC)c(OC)cc4C3)c3ccccc3n2)cc1 [Compound 7 e, 2‐(Bis(4‐methoxyphenyl)methyl)‐4‐(6,7‐dimethoxy‐3,4‐dihydroisoquinolin‐2(1H)‐yl)quinazoline]",
,,Yes^[e],"COc1cc2c(cc1OC)CN(CCc1ccc(NC(=O)c3cccc4c(=O)c5cccc(OC)c5[nH]c34)cc1)CC2 [elacr, elacridar, reference compound]",
> 20,,Yes^[d],"COc1cc2c(cc1OC)CN(CCc1ccc(NC(=O)c3cc(OC)c(OC)cc3NC(=O)c3cnc4ccccc4c3)cc1)CC2 [tariq, tariquidar, reference compound]",
